According to US9066861B2 (priority 2009, dated 2015):

Experiment: Assay (%) test of APIs in cream, stability study, HPLC method
Type: physicochemical
Method: The stability of the product is confirmed by the stability studies performed for 3/6 months as per ICH guidelines.
APIs-stability experiments were carried out (see tables 3-20) using several products that are representative of the present invention. Tests were carried out to observe (or measure as appropriate) the physical appearance of the product, the pH value and assay of the APIs over a period of time. […] Betamethasone Valerate—0.12% (w/w) • ii. Fluticasone Propionate—0.05% (w/w) • iii. Mometasone Furoate—0.1% (w/w) • iv. Dexamethasone Acetate—0.1% (w/w) • v. Hydrocortisone Acetate—1.0% (w/w) • vi. Clobetasol Propionate—0.05% (w/w) • vii. Beclomethasone Dipropionate—0.025% (w/w) • viii. Betamethasone Dipropionate—0.05% (w/w) wherein all percentages are with respect to the final formulation.
The product used for the Stability Studies tests contained approximately 10% extra APIs (overages).

CC(=O)OCC(=O)[C@@]1(O)CC[C@H]2[C@@H]3CCC4=CC(=O)CC[C@]4(C)[C@H]3[C@@H](O)C[C@@]21C [Hydrocortisone Acetate]
Assay (%) (in cream Batch No. HAS-01, 25° C. 60% RH, 1st Month): 107.14% | Assay (%) (in cream Batch No. HAS-01, 25° C. 60% RH, 2nd Month): 107.11% | Assay (%) (in cream Batch No. HAS-01, 25° C. 60% RH, 3rd Month): 107.10% | Assay (%) (in cream Batch No. HAS-01, 30° C. 65% RH, 1st Month): 107.14% | Assay (%) (in cream Batch No. HAS-01, 30° C. 65% RH, 2nd Month): 107.12% | Assay (%) (in cream Batch No. HAS-01, 30° C. 65% RH, 3rd Month): 107.09% | Assay (%) (in cream Batch No. HAS-01, 40° C. 75% RH, 1st Month): 107.14% | Assay (%) (in cream Batch No. HAS-01, 40° C. 75% RH, 2nd Month): 107.12% | Assay (%) (in cream Batch No. HAS-01, 40° C. 75% RH, 3rd Month): 107.05% | Assay (%) (in cream Batch No. HAS-01, Freezthaw, 1st Month): 107.14% | Assay (%) (in cream Batch No. HAS-01, Initial): 107.15% | Assay (%) (in cream Batch No. HAS-01, Temperature cycling, 1st Month): 107.11%

CCCCC(=O)O[C@]1(C(=O)CO)[C@@H](C)C[C@H]2[C@@H]3CCC4=CC(=O)C=C[C@]4(C)[C@@]3(F)[C@@H](O)C[C@@]21C [Betamethasone Valerate]
Assay (%) (in cream Batch No. SBV-01, 25° C. 60% RH, 1st Month): 109.54% | Assay (%) (in cream Batch No. SBV-01, 25° C. 60% RH, 2nd Month): 109.42% | Assay (%) (in cream Batch No. SBV-01, 25° C. 60% RH, 3rd Month): 109.21% | Assay (%) (in cream Batch No. SBV-01, 30° C. 65% RH, 1st Month): 109.48% | Assay (%) (in cream Batch No. SBV-01, 30° C. 65% RH, 2nd Month): 109.42% | Assay (%) (in cream Batch No. SBV-01, 30° C. 65% RH, 3rd Month): 109.20% | Assay (%) (in cream Batch No. SBV-01, 40° C. 75% RH, 1st Month): 109.51% | Assay (%) (in cream Batch No. SBV-01, 40° C. 75% RH, 2nd Month): 109.32% | Assay (%) (in cream Batch No. SBV-01, 40° C. 75% RH, 3rd Month): 109.11% | Assay (%) (in cream Batch No. SBV-01, Freezthaw, 1st Month): 108.25% | Assay (%) (in cream Batch No. SBV-01, Initial): 109.56% | Assay (%) (in cream Batch No. SBV-01, Temperature cycling, 1st Month): 109.51%

C[C@@H]1C[C@H]2[C@@H]3CCC4=CC(=O)C=C[C@]4(C)[C@@]3(Cl)[C@@H](O)C[C@]2(C)[C@@]1(OC(=O)c1ccco1)C(=O)CCl [Mometasone Furoate]
Assay (%) (in cream Batch No. SFM-01, 25° C. 60% RH, 1st Month): 108.54% | Assay (%) (in cream Batch No. SFM-01, 25° C. 60% RH, 2nd Month): 108.42% | Assay (%) (in cream Batch No. SFM-01, 25° C. 60% RH, 3rd Month): 108.21% | Assay (%) (in cream Batch No. SFM-01, 25° C. 60% RH, 6th Month): 107.82% | Assay (%) (in cream Batch No. SFM-01, 30° C. 65% RH, 1st Month): 108.48% | Assay (%) (in cream Batch No. SFM-01, 30° C. 65% RH, 2nd Month): 108.42% | Assay (%) (in cream Batch No. SFM-01, 30° C. 65% RH, 3rd Month): 108.20% | Assay (%) (in cream Batch No. SFM-01, 30° C. 65% RH, 6th Month): 107.75% | Assay (%) (in cream Batch No. SFM-01, 40° C. 75% RH, 1st Month): 108.51% | Assay (%) (in cream Batch No. SFM-01, 40° C. 75% RH, 2nd Month): 108.32% | Assay (%) (in cream Batch No. SFM-01, 40° C. 75% RH, 3rd Month): 108.11% | Assay (%) (in cream Batch No. SFM-01, 40° C. 75% RH, 6th Month): 107.88% | Assay (%) (in cream Batch No. SFM-01, Freezthaw, 1st Month): 108.15% | Assay (%) (in cream Batch No. SFM-01, Initial): 108.56% | Assay (%) (in cream Batch No. SFM-01, Temperature cycling, 1st Month): 108.51%

CCC(=O)O[C@]1(C(=O)CCl)[C@@H](C)C[C@H]2[C@@H]3CCC4=CC(=O)C=C[C@]4(C)[C@@]3(F)[C@@H](O)C[C@@]21C [Clobetasol Propionate]
Assay (%) (in cream Batch No. SPC-01, 25° C. 60% RH, 1st Month): 107.40% | Assay (%) (in cream Batch No. SPC-01, 25° C. 60% RH, 2nd Month): 107.34% | Assay (%) (in cream Batch No. SPC-01, 25° C. 60% RH, 3rd Month): 107.30% | Assay (%) (in cream Batch No. SPC-01, 25° C. 60% RH, 6th Month): 107.24% | Assay (%) (in cream Batch No. SPC-01, 30° C. 65% RH, 1st Month): 107.38% | Assay (%) (in cream Batch No. SPC-01, 30° C. 65% RH, 2nd Month): 107.32% | Assay (%) (in cream Batch No. SPC-01, 30° C. 65% RH, 3rd Month): 107.29% | Assay (%) (in cream Batch No. SPC-01, 30° C. 65% RH, 6th Month): 107.22% | Assay (%) (in cream Batch No. SPC-01, 40° C. 75% RH, 1st Month): 107.34% | Assay (%) (in cream Batch No. SPC-01, 40° C. 75% RH, 2nd Month): 107.22% | Assay (%) (in cream Batch No. SPC-01, 40° C. 75% RH, 3rd Month): 107.15% | Assay (%) (in cream Batch No. SPC-01, 40° C. 75% RH, 6th Month): 107.10% | Assay (%) (in cream Batch No. SPC-01, Freezthaw, 1st Month): 107.11% | Assay (%) (in cream Batch No. SPC-01, Initial): 107.41% | Assay (%) (in cream Batch No. SPC-01, Temperature cycling, 1st Month): 107.21%

CCC(=O)OCC(=O)[C@@]1(OC(=O)CC)[C@@H](C)C[C@H]2[C@@H]3CCC4=CC(=O)C=C[C@]4(C)[C@@]3(Cl)[C@@H](O)C[C@@]21C [Beclomethasone dipropionate]
Assay (%) (in cream Batch No. SFB-01, 25° C. 60% RH, 1st Month): 108.05% | Assay (%) (in cream Batch No. SFB-01, 25° C. 60% RH, 2nd Month): 108.00% | Assay (%) (in cream Batch No. SFB-01, 25° C. 60% RH, 3rd Month): 107.90% | Assay (%) (in cream Batch No. SFB-01, 30° C. 65% RH, 1st Month): 108.11% | Assay (%) (in cream Batch No. SFB-01, 30° C. 65% RH, 2nd Month): 107.96% | Assay (%) (in cream Batch No. SFB-01, 30° C. 65% RH, 3rd Month): 107.68% | Assay (%) (in cream Batch No. SFB-01, 40° C. 75% RH, 1st Month): 108.04% | Assay (%) (in cream Batch No. SFB-01, 40° C. 75% RH, 2nd Month): 107.98% | Assay (%) (in cream Batch No. SFB-01, 40° C. 75% RH, 3rd Month): 107.88% | Assay (%) (in cream Batch No. SFB-01, Freezthaw, 1st Month): 107.58% | Assay (%) (in cream Batch No. SFB-01, Initial): 108.12% | Assay (%) (in cream Batch No. SFB-01, Temperature cycling, 1st Month): 107.68%

CCC(=O)O[C@]1(C(=O)SCF)[C@H](C)C[C@H]2[C@@H]3C[C@H](F)C4=CC(=O)C=C[C@]4(C)[C@@]3(F)[C@@H](O)C[C@@]21C [Fluticasone Propionate]
Assay (%) (in cream Batch No. SFC-01, 25° C. 60% RH, 1st Month): 108.54% | Assay (%) (in cream Batch No. SFC-01, 25° C. 60% RH, 2nd Month): 108.42% | Assay (%) (in cream Batch No. SFC-01, 25° C. 60% RH, 3rd Month): 108.21% | Assay (%) (in cream Batch No. SFC-01, 25° C. 60% RH, 6th Month): 108.10% | Assay (%) (in cream Batch No. SFC-01, 30° C. 65% RH, 1st Month): 108.48% | Assay (%) (in cream Batch No. SFC-01, 30° C. 65% RH, 2nd Month): 108.42% | Assay (%) (in cream Batch No. SFC-01, 30° C. 65% RH, 3rd Month): 108.20% | Assay (%) (in cream Batch No. SFC-01, 30° C. 65% RH, 6th Month): 108.11% | Assay (%) (in cream Batch No. SFC-01, 40° C. 75% RH, 1st Month): 108.51% | Assay (%) (in cream Batch No. SFC-01, 40° C. 75% RH, 2nd Month): 108.32% | Assay (%) (in cream Batch No. SFC-01, 40° C. 75% RH, 3rd Month): 108.11% | Assay (%) (in cream Batch No. SFC-01, 40° C. 75% RH, 6th Month): 108.08% | Assay (%) (in cream Batch No. SFC-01, Freezthaw, 1st Month): 108.15% | Assay (%) (in cream Batch No. SFC-01, Initial): 108.56% | Assay (%) (in cream Batch No. SFC-01, Temperature cycling, 1st Month): 108.51%
